From patent publication US12673975B2, “Cyclic peptide, cell scaffold material, cell separating material, and medium” (FUJIFILM Corporation, priority 2019, dated 2026)
Like-named read-outs stand apart in the source and are kept apart here. Starred links: 1 amine or outer side, 2 acyl side, 3 side chain; linkers in the order of their positions; H or OH if unused. Positions of bridges follow the written chain, without caps; N, C: chain ends. Non-standard residues stand in square brackets, D forms with d. Residues, ends and D or L forms follow the SMILES beside them. Pen = CC(C)(S)[C@H](N)C(=O)O; hCys = N[C@@H](CCS)C(=O)O; Orn = NCCC[C@H](N)C(=O)O; Dab = NCC[C@H](N)C(=O)O; Dap = NC[C@H](N)C(=O)O; X1 = O=C(C[*:2])[*:1]; X2 = O=C(C[*:1])[*:2]

Key:
human integrin αvβ5 = human integrin αvβ5 (Homo sapiens, UniProt P06756+P18084); assay: Evaluation of integrin binding property (surface plasmon resonance, Biacore 3000, immobilized cyclic peptide)
Procedure, shortened: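 Human αvβ5 (30-1,000 nM) flowed for 10 min at 25 °C over immobilized cyclic peptide in 20 mM HEPES, 150 mM NaCl, 5 mM MgCl2, pH 7.4, followed by 30 min running buffer and 0.5 M EDTA regeneration. Dissociation constant from peptide minus unimmobilized channel, scored into standard grades.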

[1] = Evaluation of molecule stability (alkali treatment, residual rate by LC/MS); assay type: physicochemical; conditions: for Performance evaluation: Stability (residual rate of cyclic peptide after alkali treatment): 500 μM peptide aqueous solution plus equivalent of 1 M sodium hydroxide, 15° C., 3 hours, LC/MS peak area; for Stability (molecule stability, residual rate of the cyclic peptide rank): alkali treatment, residual rate by LC/MS
Procedure, shortened: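 Stability read as percent of summed LC/MS peak area remaining versus untreated peptide (C18, 45 °C, 10 mM ammonium formate pH 3, ESI positive/negative). Treatment: 500 μM peptide in water plus an equivalent of 1 M NaOH, 15 °C for 3 hours.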

[2] = SPR, 25° C., HEPES buffer with 5 mM magnesium chloride, integrin 30-1,000 nM, read-out: Performance evaluation: Binding activity (dissociation constant between the cyclic peptide and human integrin αvβ5)
[3] = surface plasmon resonance, immobilized cyclic peptide, human integrin αvβ5, read-out: Binding activity (integrin binding property, dissociation constant rank)

Sequence of human integrin αvβ5 (P06756 31-1048): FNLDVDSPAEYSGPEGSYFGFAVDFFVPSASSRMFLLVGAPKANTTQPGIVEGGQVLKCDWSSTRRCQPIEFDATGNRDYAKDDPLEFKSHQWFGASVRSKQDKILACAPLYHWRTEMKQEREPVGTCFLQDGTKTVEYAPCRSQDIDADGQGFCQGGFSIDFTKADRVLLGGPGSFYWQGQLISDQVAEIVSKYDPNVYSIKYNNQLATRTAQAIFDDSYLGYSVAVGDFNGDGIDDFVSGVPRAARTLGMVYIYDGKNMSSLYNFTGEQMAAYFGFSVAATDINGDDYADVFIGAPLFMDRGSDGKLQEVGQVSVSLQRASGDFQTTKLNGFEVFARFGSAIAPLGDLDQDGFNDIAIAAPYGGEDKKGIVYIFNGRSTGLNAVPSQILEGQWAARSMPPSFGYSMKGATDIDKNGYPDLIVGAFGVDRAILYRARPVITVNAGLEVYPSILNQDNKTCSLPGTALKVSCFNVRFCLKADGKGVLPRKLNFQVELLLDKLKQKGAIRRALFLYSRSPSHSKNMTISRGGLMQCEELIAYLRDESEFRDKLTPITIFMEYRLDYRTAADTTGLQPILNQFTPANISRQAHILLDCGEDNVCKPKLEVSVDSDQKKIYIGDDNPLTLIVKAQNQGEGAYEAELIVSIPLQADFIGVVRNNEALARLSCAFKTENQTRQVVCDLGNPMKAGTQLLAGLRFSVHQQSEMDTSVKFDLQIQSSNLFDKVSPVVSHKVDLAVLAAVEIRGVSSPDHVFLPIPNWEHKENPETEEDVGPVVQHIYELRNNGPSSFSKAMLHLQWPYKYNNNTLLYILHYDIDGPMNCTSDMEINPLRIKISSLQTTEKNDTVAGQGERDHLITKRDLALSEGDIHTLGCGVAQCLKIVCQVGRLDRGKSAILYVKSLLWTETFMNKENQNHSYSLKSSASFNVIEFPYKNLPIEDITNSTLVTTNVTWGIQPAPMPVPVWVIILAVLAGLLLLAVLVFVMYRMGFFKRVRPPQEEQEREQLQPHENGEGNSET
Sequence of human integrin αvβ5 (P18084 24-799): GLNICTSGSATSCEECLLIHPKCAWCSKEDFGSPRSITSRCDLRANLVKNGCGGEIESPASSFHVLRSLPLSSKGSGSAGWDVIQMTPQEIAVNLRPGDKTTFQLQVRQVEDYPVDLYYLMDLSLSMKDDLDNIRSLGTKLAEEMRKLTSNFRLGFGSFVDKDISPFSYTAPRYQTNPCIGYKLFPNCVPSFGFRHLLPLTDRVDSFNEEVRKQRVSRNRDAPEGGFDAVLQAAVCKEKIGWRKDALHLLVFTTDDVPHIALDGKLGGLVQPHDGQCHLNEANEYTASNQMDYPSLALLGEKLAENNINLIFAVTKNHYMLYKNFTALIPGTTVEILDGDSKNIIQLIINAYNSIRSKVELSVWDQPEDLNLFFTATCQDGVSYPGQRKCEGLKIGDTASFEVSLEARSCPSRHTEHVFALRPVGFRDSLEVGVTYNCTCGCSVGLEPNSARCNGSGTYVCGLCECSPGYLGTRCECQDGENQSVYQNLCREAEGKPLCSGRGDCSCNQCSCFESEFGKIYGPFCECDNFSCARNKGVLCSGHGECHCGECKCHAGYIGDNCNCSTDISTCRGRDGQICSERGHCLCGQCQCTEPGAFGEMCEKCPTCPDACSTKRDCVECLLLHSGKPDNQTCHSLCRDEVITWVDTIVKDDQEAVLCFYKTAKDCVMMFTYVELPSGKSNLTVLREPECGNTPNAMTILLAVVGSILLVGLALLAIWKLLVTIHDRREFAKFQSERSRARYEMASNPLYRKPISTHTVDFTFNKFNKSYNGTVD

| Kd (human integrin αvβ5; [2]) [nM] | Kd (human integrin αvβ5; [3]) [nM] | Compound | Performance evaluation: Stability (residual rate of cyclic peptide after alkali treatment) [1] | Stability (molecule stability, residual rate of the cyclic peptide rank) [1] |
| --- | --- | --- | --- | --- |
| < 50 |  | CC[C@H](C)[C@@H]1NC(=O)[C@@H](NC(=O)[C@H](CCCCN)NC(=O)[C@H](CCCCN)NC(=O)[C@@H](N)CCCCN)CCSCC(=O)NCC[C@@H](C(=O)O)NC(=O)[C@H](C)NC(=O)[C@H](Cc2ccccc2)NC(=O)[C@H]([C@@H](C)O)NC(=O)[C@H](CC(=O)O)NC(=O)CNC(=O)[C@H](CCCNC(=N)N)NC(=O)[C@@H]2CCCN2C1=O [Cyclic peptide 62, KKK-(Hcy)-IPRGDTFA(Dab(acetyl))] (H-KKK[hCys]IPRGDTFA[Dab]-OH; linker 4-13 via X2) | A (The residual rate of the cyclic peptide is 70% or more.) |  |
|  | < 50 | CC[C@H](C)[C@@H]1NC(=O)[C@@H](NC(=O)CNC(=O)[C@H](CCCCN)NC(=O)[C@H](CCCCN)NC(=O)[C@@H](N)CCCCN)C(C)(C)SCC(=O)NC[C@@H](C(=O)N[C@@H](C)C(=O)O)NC(=O)[C@H](CCCNC(=N)N)NC(=O)[C@H](Cc2ccccc2)NC(=O)[C@H]([C@@H](C)O)NC(=O)[C@H](CC(=O)O)NC(=O)CNC(=O)[C@H](CCCNC(=N)N)NC(=O)[C@@H]2CCCN2C1=O [Cyclic peptide 128, KKKG-(Pen)-IPRGDTFR(Dap(acetyl))A] (H-KKKG[Pen]IPRGDTFR[Dap]A-OH; linker 5-14 via X2) |  | B (The residual rate of the cyclic peptide is 50% or more and less than 70%.) |
|  | < 50 | CC(C)[C@@H]1NC(=O)[C@@H](NC(=O)[C@H](C)NC(=O)[C@H](CCCCN)NC(=O)[C@H](CCCCN)NC(=O)[C@@H](N)CCCCN)CCNC(=O)CSC[C@@H](C(=O)N[C@@H](C)C(=O)O)NC(=O)[C@H](C)NC(=O)[C@H](Cc2ccccc2)NC(=O)[C@H]([C@@H](C)O)NC(=O)[C@H](CC(=O)O)NC(=O)CNC(=O)[C@H](CCCNC(=N)N)NC(=O)[C@@H]2CCCN2C1=O [Cyclic peptide 142, KKKA(Dab(acetyl))VPRGDTFA(C)A] (H-KKKA[Dab]VPRGDTFACA-OH; linker 5-14 via X1) |  | C (The residual rate of the cyclic peptide is 30% or more and less than 50%.) |
| 50 to 100 |  | C[C@H](NC(=O)[C@@H]1CCNC(=O)CSCC[C@H](NC(=O)[C@H](C)NC(=O)[C@H](CCCCN)NC(=O)[C@H](CCCCN)NC(=O)[C@@H](N)CCCCN)C(=O)N[C@@H](CCC(=O)O)C(=O)N2CCC[C@H]2C(=O)N[C@@H](CCCNC(=N)N)C(=O)NCC(=O)N[C@@H](CC(=O)O)C(=O)N[C@@H](CC(N)=O)C(=O)N[C@@H](Cc2ccc(O)cc2)C(=O)N[C@@H](CCCNC(=N)N)C(=O)N1)C(=O)O [Cyclic peptide 41, KKKA-(Hcy)-EPRGDNYR(Dab(acetyl))A] (H-KKKA[hCys]EPRGDNYR[Dab]A-OH; linker 5-14 via X2) | A (The residual rate of the cyclic peptide is 70% or more.) |  |
|  | < 50 | CC[C@H](C)[C@@H]1NC(=O)[C@@H](NC(=O)CNC(=O)[C@H](CCCCN)NC(=O)[C@H](CCCCN)NC(=O)[C@@H](N)CCCCN)CCCNC(=O)CSC(C)(C)[C@@H](C(=O)N[C@@H](C)C(=O)O)NC(=O)[C@H](CCCNC(=N)N)NC(=O)[C@H](Cc2ccccc2)NC(=O)[C@H]([C@@H](C)O)NC(=O)[C@H](CC(=O)O)NC(=O)CNC(=O)[C@H](CCCNC(=N)N)NC(=O)[C@@H]2CCCN2C1=O [Cyclic peptide 134, KKKG(Orn(acetyl))IPRGDTFR-(Pen)-A] (H-KKKG[Orn]IPRGDTFR[Pen]A-OH; linker 5-14 via X1) |  | A (The residual rate of the cyclic peptide is 70% or more.) |

Continued, compound first:

| Compound | Kd (human integrin αvβ5; [2]) [nM] | Kd (human integrin αvβ5; [3]) [nM] | Performance evaluation: Stability (residual rate of cyclic peptide after alkali treatment) [1] | Stability (molecule stability, residual rate of the cyclic peptide rank) [1] |
| --- | --- | --- | --- | --- |
| C[C@H](NC(=O)[C@H](CCCCN)NC(=O)[C@H](CCCCN)NC(=O)[C@@H](N)CCCCN)C(=O)N[C@H]1CNC(=O)CSCC[C@@H](C(=O)O)NC(=O)[C@H](CCCNC(=N)N)NC(=O)[C@H](Cc2ccc(O)cc2)NC(=O)[C@H](CC(N)=O)NC(=O)[C@H](CC(=O)O)NC(=O)CNC(=O)[C@H](CCCNC(=N)N)NC(=O)[C@@H]2CCCN2C(=O)[C@H](CCC(=O)O)NC1=O [Cyclic peptide 47, KKKA(Dap(acetyl))EPRGDNYR-(Hcy)] (H-KKKA[Dap]EPRGDNYR[hCys]-OH; linker 5-14 via X1) | 50 to 100 |  | B (The residual rate of the cyclic peptide is 50% or more and less than 70%.) |  |
| N=C(N)NCCC[C@@H]1NC(=O)[C@H](Cc2ccc(O)cc2)NC(=O)[C@H](CC(N)=O)NC(=O)[C@H](CC(=O)O)NC(=O)CNC(=O)[C@H](CCCNC(=N)N)NC(=O)[C@@H]2CCCN2C(=O)[C@H](CCC(=O)O)NC(=O)[C@@H](NC(=O)[C@H](CCCCN)NC(=O)[C@H](CCCCN)NC(=O)[C@@H](N)CCCCN)CCSCC(=O)NCC[C@@H](C(N)=O)NC1=O [Cyclic peptide 49, KKK-(Hcy)-EPRGDNYR(Dab(acetyl))] (H-KKK[hCys]EPRGDNYR[Dab]-NH2; linker 4-13 via X2) | 50 to 100 |  | A (The residual rate of the cyclic peptide is 70% or more.) |  |
| CC[C@H](C)[C@@H]1NC(=O)[C@@H](NC(=O)CNC(=O)[C@H](CCCCN)NC(=O)[C@H](CCCCN)NC(=O)[C@@H](N)CCCCN)CCCCNC(=O)CSC(C)(C)[C@@H](C(=O)N[C@@H](C)C(=O)O)NC(=O)[C@H](CCCNC(=N)N)NC(=O)[C@H](Cc2ccccc2)NC(=O)[C@H]([C@@H](C)O)NC(=O)[C@H](CC(=O)O)NC(=O)CNC(=O)[C@H](CCCNC(=N)N)NC(=O)[C@@H]2CCCN2C1=O [Cyclic peptide 135, KKKG(Lys(acetyl))IPRGDTFR-(Pen)-A] (H-KKKGKIPRGDTFR[Pen]A-OH; linker 5-14 via X1) |  | 50 to 100 |  | A (The residual rate of the cyclic peptide is 70% or more.) |
| CC[C@H](C)[C@@H]1NC(=O)[C@H](C)NC(=O)[C@H](C)NC(=O)[C@@H](NC(=O)[C@H](CCCCN)NC(=O)[C@H](CCCCN)NC(=O)[C@@H](N)CCCCN)CCSCC(=O)NCC[C@@H](C(=O)N[C@@H](C)C(=O)O)NC(=O)[C@H](CCCNC(=N)N)NC(=O)[C@H](Cc2ccccc2)NC(=O)[C@H](CC(N)=O)NC(=O)[C@H](CC(=O)O)NC(=O)CNC(=O)[C@H](CCCNC(=N)N)NC(=O)[C@@H]2CCCN2C1=O [Cyclic peptide 18, KKK-(Hcy)-AAIPRGDNFR(Dab(acetyl))A] (H-KKK[hCys]AAIPRGDNFR[Dab]A-OH; linker 4-15 via X2) | 50 to 100 |  | A (The residual rate of the cyclic peptide is 70% or more.) |  |
| C[C@H](NC(=O)[C@@H]1CCNC(=O)CSCC[C@H](NC(=O)[C@H](C)NC(=O)[C@H](CCCCN)NC(=O)[C@H](CCCCN)NC(=O)[C@@H](N)CCCCN)C(=O)N[C@@H]([C@@H](C)O)C(=O)N2CCC[C@H]2C(=O)N[C@@H](CCCNC(=N)N)C(=O)NCC(=O)N[C@@H](CC(=O)O)C(=O)N[C@@H]([C@@H](C)O)C(=O)N[C@@H](Cc2ccccc2)C(=O)N[C@@H](C)C(=O)N1)C(=O)O [Cyclic peptide 160, KKKA-(Hcy)-TPRGDTFA(Dab(acetyl))A] (H-KKKA[hCys]TPRGDTFA[Dab]A-OH; linker 5-14 via X2) |  | < 50 |  | A (The residual rate of the cyclic peptide is 70% or more.) |
